In assay [1] the target is T1, human NK-2 receptor (Homo sapiens, UniProt P21452).
T1 construct: expressed in transfected cells; host or cells: CHO-hNK-2R cells (CHO-derived), membrane preparation
T1 sequence (P21452 1-398): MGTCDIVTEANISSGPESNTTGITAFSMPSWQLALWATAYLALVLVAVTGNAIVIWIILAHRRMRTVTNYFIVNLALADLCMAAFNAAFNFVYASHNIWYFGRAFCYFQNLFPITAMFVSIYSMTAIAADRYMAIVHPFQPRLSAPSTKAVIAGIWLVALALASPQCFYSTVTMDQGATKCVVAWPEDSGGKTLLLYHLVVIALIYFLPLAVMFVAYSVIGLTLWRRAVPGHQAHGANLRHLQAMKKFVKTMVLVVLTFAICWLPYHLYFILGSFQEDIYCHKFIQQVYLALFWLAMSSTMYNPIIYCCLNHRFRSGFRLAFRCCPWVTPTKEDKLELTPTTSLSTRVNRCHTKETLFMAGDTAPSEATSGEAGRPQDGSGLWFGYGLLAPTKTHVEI
As to the kind of experiment: NK-2 Receptor Binding Assay (CHO-hNK-2R membranes, iodohistidyl-neurokinin A). To be noted: for inhibition at 10 µM: inhibition of neurokinin A binding at ten micromolar, read-out: Percent Inhibition @ 10 μM; for pIC50: values in parentheses, amount necessary to inhibit fifty percent of the binding of neurokinin A. As to the method: The CHO-hNK-2R cells, a CHO-derived cell line transformed with the human NK-2 receptor, expressing about 400,000 such receptors per cell, were grown in 75 cm flasks or roller bottles in minimal essential medium (alpha modification) with 10% fetal bovine serum. The gene sequence of the human NK-2 receptor is given in N.P. Gerard, et al., Journal of Biological Chemistry, 265:20455-20462 (1990).
For preparation of membranes, 30 confluent roller bottle cultures were dissociated by washing each roller bottle with 10 ml of Dulbecco's phosphate buffered saline (PBS) without calcium and magnesium, followed by addition of 10 ml of enzyme-free cell dissociation solution (PBS-based, from Specialty Media, Inc.). After an additional 15 minutes, the dissociated cells were pooled and centrifuged at 1,000 RPM for 10 minutes in a clinical centrifuge. Membranes were prepared by homogenization of the cell pellets in 300 ml 50 mM Tris buffer, pH 7.4 with a Tekmar® homogenizer for 10-15 seconds, followed by centrifugation at 12,000 RPM (20,000 x g) for 30 minutes using a Beckman JA-14® rotor. The pellets were washed once using the above procedure. and the final pellets were resuspended in 100-120 ml 50 mM Tris buffer, pH 7.4, and 4 ml aliquots stored frozen at -70 °C. The protein concentration of this preparation was 2 mg/ml.
For the receptor binding assay, one 4-ml aliquot of the CHO-hNK-2R membrane preparation was suspended in 40 ml of assay buffer containing 50 mM Tris, pH 7.4, 3 mM manganese chloride, 0.02% bovine serum albumin (BSA) and 4 µg/ml chymostatin. A 200 µl volume of the homogenate (40 µg protein) was used per sample. The radioactive ligand was [[…]]iodohistidyl-neurokinin A (New England Nuclear, NEX-252), 2200 Ci/mmol. The ligand was prepared in assay buffer at 20 nCi per 100 µl; the final concentration in the assay was 20 pM. Non-specific binding was determined using 1 µM eledoisin. Ten concentrations of eledoisin from 0.1 to 1000 nM were used for a standard concentration-response curve.
All samples and standards were added to the incubation in 10 µl dimethylsulfoxide (DMSO) for screening (single dose) or in 5 µl DMSO for IC₅₀ determinations. The order of additions for incubation was 190 or 195 µl assay buffer, 200 µl homogenate, 10 or 5 µl sample in DMSO, 100 µl radioactive ligand. The samples were incubated 1 hr at room temperature and then filtered on a cell harvester through filters which had been presoaked for two hours in 50 mM Tris buffer, pH 7.7, containing 0.5% BSA. The filter was washed 3 times with approximately 3 ml of cold 50 mM Tris buffer, pH 7.7. The filter circles were then punched into 12 x 75 mm polystyrene tubes and counted in a gamma counter.
Table II, infra, provides a representative sample of the effectiveness as NK-2 receptor antagonists of many of the compounds of Formula I. The first column provides the Example number of the compound tested. The second column provides either the percent inhibition of neurokinin A binding when the compound is present in a ten micromolar concentration or the amount of compound (in micromolar amounts) necessary to inhibit fifty percent of the binding of neurokinin A. Those values which represent IC₅₀ values are designated by parentheses.

Assay [2] deals with T2, NK-1 receptor (Homo sapiens, UniProt P25103).
T2 construct: an aliquot of IM9 cells; endogenous in cells; host or cells: IM9 cells (whole cells)
T2 sequence (P25103 whole entry): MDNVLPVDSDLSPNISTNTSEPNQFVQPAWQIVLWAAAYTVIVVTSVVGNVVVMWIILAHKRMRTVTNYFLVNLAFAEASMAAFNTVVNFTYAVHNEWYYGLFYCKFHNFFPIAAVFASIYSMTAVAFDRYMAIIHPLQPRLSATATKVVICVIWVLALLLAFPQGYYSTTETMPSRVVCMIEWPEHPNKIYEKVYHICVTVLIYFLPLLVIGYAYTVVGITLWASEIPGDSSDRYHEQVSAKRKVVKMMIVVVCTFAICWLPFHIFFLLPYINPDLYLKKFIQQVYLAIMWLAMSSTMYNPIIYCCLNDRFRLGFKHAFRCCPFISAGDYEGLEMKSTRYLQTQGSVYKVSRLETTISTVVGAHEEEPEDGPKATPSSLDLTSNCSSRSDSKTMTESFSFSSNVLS
In words: NK-1 Receptor Binding Assay (competition with labeled substance P on IM9 cells). To be noted: for pIC50: concentration which inhibits fifty percent of the binding of substance P, 20 pM labeled substance P, 45 minutes at 4°C; for inhibition at 10 µM: inhibition of substance P binding to the NK-1 receptor, read-out: Percent Inhibition. The procedure: Radioreceptor binding assays were performed using a derivative of a previously published protocol. D.G. Payan, et al., Journal of Immunology, 133:3260-3265 (1984). In this assay an aliquot of IM9 cells (1 x 10⁶ cells/tube in […] medium supplemented with 10% fetal calf serum) was incubated with 20 pM […] substance P in the presence of increasing competitor concentrations for 45 minutes at 4°C.
The IM9 cell line is a well-characterized cell line which is readily available to the public. See. e.g., Annals of the New York Academy of Science, 190: 221-234 (1972); Nature (London), 251:443-444 (1974); Proceedings of the National Academy of Sciences (USA), 71:84-88 (1974). These cells were routinely cultured in RPMI 1640 supplemented with 50 µg/ml gentamicin sulfate and 10% fetal calf serum.
The reaction was terminated by filtration through a glass fiber filter harvesting system using filters previously soaked for 20 minutes in 0.1% polyethylenimine. Specific binding of labeled substance P was determined in the presence of 20 nM unlabeled ligand.
Column 1 provides the example number of the test antagonist compound. The next columns detail the substitution patterns of the test compound.

Molecules are shown by their SMILES. pIC50: −log10 of the molar value.

For the compound `Cc1cccc(-c2nc3ccccc3n2Cc2cccc(Cl)c2)c1` [Example 57, 1-(3-Chlorobenzyl)-2-(3-methylphenyl)benzimidazole], in assay [1], the inhibition (usually the drop in the measured response relative to a control, in per cent) at 10 µM is 50.8%. Also, the pIC50 – broadly, the negative decadic logarithm of the IC50, by convention in mol/L – in assay [2] is 5.58.

Turning to `COc1cccc(Cn2c(-c3cc(OC)c(OC)c(OC)c3)nc3ccccc32)c1` [Example 45, 1-(3-methoxybenzyl)-2-(3,4,5-trimethoxyphenyl)-benzimidazole], the inhibition at 10 µM amounted to 23.2% in assay [1] and 81% in assay [2].

`COc1cc(-c2nc3ccccc3n2Cc2cccc(C)c2)cc(OC)c1OC` [Example 44, 1-(3-methylbenzyl)-2-(3,4,5-trimethoxyphenyl)-benzimidazole]: in assay [1], the inhibition at 10 µM is 52.9%. The compound further showed a pIC50 in assay [2] of 5.69.

Take `COc1ccc(Cn2c(-c3cc(OC)c(OC)c(OC)c3)nc3ccccc32)cc1` [Example 46, 1-(4-methoxybenzyl)-2-(3,4,5-trimethoxyphenyl)-benzimidazole]: the results for the inhibition at 10 µM in assay [1] and in assay [2] were -1.5% and 56%, respectively.

For `COc1cc(-c2nc3ccc(OCCN4CCOCC4)cc3n2Cc2ccccc2)cc(OC)c1OC` [Example 70, 1-benzyl-2-(3,4,5-trimethoxyphenyl)-6-[2-(4-morpholinyl)ethoxy]benzimidazole], the inhibition at 10 µM in assay [1] turned out to be 63.7%. Further, the pIC50 in assay [2] was 7.07.

`COc1cc(-c2nc3ccc(OCCCl)cc3n2Cc2ccccc2)cc(OC)c1OC` [Example 76, 1-benzyl-2-(3,4,5-trimethoxyphenyl)-6-(2-chloroethoxy)benzimidazole]: the figures for the pIC50 in assay [1] and in assay [2] were 5.13 and 6.48, respectively.

Consider `COc1cc(-c2nc3ccccc3n2Cc2ccc(Cl)cc2Cl)cc(OC)c1OC` [Example 54, 1-(2,4-dichlorobenzyl)-2-(3,4,5-trimethoxyphenyl)-benzimidazole], for which the values for the inhibition at 10 µM in assay [1] and in assay [2] were 86.2% and 56%, respectively.

`COc1cc(-c2nc3ccccc3n2Cc2ccccc2C)cc(OC)c1OC` [Example 43, 1-(2-methylbenzyl)-2-(3,4,5-trimethoxyphenyl)-benzimidazole]: in assay [1], the inhibition at 10 µM is 68.4%. Moreover, the pIC50 in assay [2] was 6.07.

Take `Cc1cccc(-c2nc3ccc(O)cc3n2Cc2ccccc2)c1` [Example 84, 1-benzyl-2-(3-methylphenyl)-6-hydroxybenzimidazole]: in assay [1], the inhibition at 10 µM worked out at 37.8%. Further, the pIC50 in assay [2] was 6.23.

Take `COc1cc(-c2nc3ccccc3n2Cc2ccccc2F)cc(OC)c1OC` [Example 48, 1-(2-fluorobenzyl)-2-(3,4,5-trimethoxyphenyl)-benzimidazole]: in assay [1], the inhibition at 10 µM was determined as 44.2%. In addition, the pIC50 in assay [2] was 5.86.

Consider `COc1cc(-c2nc3ccccc3n2Cc2ccc(Cl)cc2)cc(OC)c1OC` [Example 42, 1-(4-chlorobenzyl)-2-(3,4,5-trimethoxyphenyl)-benzimidazole], for which the inhibition at 10 µM in assay [1] worked out at 2.6%; in assay [2], 61%.

With `COc1cc(-c2nc3ccccc3n2Cc2ccccc2Br)cc(OC)c1OC` [Example 51, 1-(2-bromobenzyl)-2-(3,4,5-trimethoxyphenyl)-benzimidazole], the inhibition at 10 µM in assay [1] was 84.8%. Moreover, the pIC50 in assay [2] was 6.23.

For the compound `COc1cc(-c2nc3ccc(OCCN4CCCC4)cc3n2Cc2ccccc2)cc(OC)c1OC` [Example 72, 1-benzyl-2-(3,4,5-trimethoxyphenyl)-6-[2-(1-pyrroldinyl)ethoxy]benzimidazole], in assay [1], the inhibition at 10 µM was 53.8%. The same compound had a pIC50 in assay [2] of 7.13.

Regarding `Cc1cccc(-c2nc3ccccc3n2Cc2ccc(Cl)cc2)c1` [Example 58, 1-(4-Chlorobenzyl)-2-(3-methylphenyl)benzimidazole], the inhibition at 10 µM in assay [1] was 42.9%; in assay [2] it was 29%.

In the case of `Cc1cccc(-c2nc3ccccc3n2Cc2ccc(Cl)c(Cl)c2)c1` [Example 64, 1-(3,4-Dichlorobenzyl)-2-(3-methylphenyl)benzimidazole], the inhibition at 10 µM was 58.7% in assay [1] and 41% in assay [2].

Consider `COc1ccccc1Cn1c(-c2cc(OC)c(OC)c(OC)c2)nc2ccccc21` [Example 47, 1-(2-methoxybenzyl)-2-(3,4,5-trimethoxyphenyl)-benzimidazole], for which the inhibition at 10 µM in assay [1] came out at 67.7%. Also, the pIC50 in assay [2] was 6.35.

As to `Cc1cccc(-c2nc3ccccc3n2Cc2ccccc2Cl)c1` [Example 56, 1-(2-chlorobenzyl)-2-(3-methylphenyl)-benzimidazole], the inhibition at 10 µM came to 63.7% in assay [1] and 71% in assay [2].

For `COc1cc(-c2nc3ccc(OCCN4CCC(N5CCCCC5)CC4)cc3n2Cc2ccccc2)cc(OC)c1OC` [Example 77, 1-benzyl-2-(3,4,5-trimethoxyphenyl)-6-[2-[4-(piperidin-1-yl)piperdin-1-yl]ethoxy]benzimidazole], the pIC50 in assay [1] is 5.20; in assay [2] it was 6.91.

Consider `COc1cc(-c2nc3ccc(OCCN4CCCCCC4)cc3n2Cc2ccccc2)cc(OC)c1OC` [Example 73, 1-benzyl-2-(3,4,5-trimethoxyphenyl)-6-[2-(1-hexamethyleneiminyl)ethoxy]benzimidazole], for which the inhibition at 10 µM in assay [1] was determined as 83.5%. Moreover, the pIC50 in assay [2] was 7.28.

As to `COc1cc(-c2nc3ccc(OCCCCl)cc3n2Cc2ccccc2)cc(OC)c1OC` [Example 75, 1-benzyl-2-(3,4,5-trimethoxyphenyl)-6-(3-chloropropoxy)benzimidazole], the inhibition at 10 µM in assay [1] worked out at 86.3%. In assay [2], this compound gave a pIC50 of 6.09.

For `COc1cc(-c2nc3ccccc3n2Cc2ccccc2C(F)(F)F)cc(OC)c1OC` [Example 49, 1-(2-trifluoromethylbenzyl)-2-(3,4,5-trimethoxyphenyl)-benzimidazole], the inhibition at 10 µM in assay [1] was determined as 82%. Further, the pIC50 in assay [2] is 6.14.

Take `COc1cc(-c2nc3ccccc3n2Cc2ccc(C)cc2)cc(OC)c1OC` [Example 55, 1-(4-methylbenzyl)-2-(3,4,5-trimethoxyphenyl)-benzimidazole]: the inhibition at 10 µM in assay [1] came out at 21.9%; in assay [2] it was 53%.

Consider `Cc1cccc(-c2nc3ccccc3n2Cc2ccccc2I)c1` [Example 61, 1-(2-Iodobenzyl)-2-(3-methylphenyl)benzimidazole], for which the figures for the inhibition at 10 µM in assay [1] and in assay [2] were 60.1% and 66%, respectively.

For the origin of these results see patent EP0694535A1, “Non-peptidyl tachykinin receptor antagonists” (ELI LILLY AND COMPANY, priority 1994, dated 1996).
